Data on one compound can be found in patent US11420922B2, “Hydroxylated tropolone inhibitors of nucleotidyl transferases in herpesvirus and Hepatitis B and uses therefor” (Saint Louis University, priority 2015, dated 2022).

Usually EC50 stands for the midpoint of the concentration-response curve. The term CC50 denotes the concentration at which the toxic effect on the cells reaches its halfway point.

SMILES strings stand for the structures. “Also recorded” adds a separate entry of the source.

Data set [1] relates to HSV-2. In words: Anti-HSV-2 replication assay in Vero cells, titers by plaque assay. Type of data set: cell-based, herpes simplex virus 2.
The test system of data set [2] is TK-deficient mutant of HSV-2 strain 333, ΔTK-. The data set is described as follows: Replication of acyclovir-resistant TK-deficient HSV-2 mutant in Vero cells. Type of data set: cell-based, herpes simplex virus 2. The note with it: 5 μM, 24 hr, FIG. 4. The method, then: FIGS. 4A & 4B. Sensitivity of thymidine kinase-deficient HSV-2 to αHT compounds. […] Duplicate cultures were collected 24 hours post-infection and infectious virus titers were determined by plaque assay. Titers in compound-treated samples were subtracted from DMSO-treated samples. Values are the averages±one standard error of the mean. α-Hydroxytropolones inhibit an ACV-resistant mutant of HSV-2. […] Log10 suppression was determined relative to the diluent control. Data are the averages of data from duplicate samples±ranges from one of two independent experiments at each concentration.
Vero cells were maintained in Dulbecco's modified Eagle's medium (DMEM) containing 3% newborn calf serum, 3% bovine growth serum, 2 mM L-glutamine and 100 IU/mL penicillin and 0.1 mg/mL streptomycin (P/S). HSV-1 #6 and HSV-2 #1 are de-identified clinical isolates from the Saint Louis University Hospital. Stocks were prepared after a single passage in cell culture and were titered by standard plaque assay (Knipe and Spang, 1982). Wild-type HSV-2 used in FIG. 3 was laboratory strain 333. The TK-deficient mutant of HSV-2 strain 333, ΔTK-, contains a 180-bp KpnI-KpnI deletion in the UL23 open reading frame that abrogates TK activity (McDermott, et al, 1984). ΔTK- was the generous gift of Jim Smiley. Virus stocks were grown and titered on Vero cells (Morrison and Knipe, 1996).
HSV TK-deficient mutants are therefore insensitive to ACV. […] Vero cells were infected with a laboratory strain of HSV-2 and an engineered TK-deficient mutant of the same strain.

A further data set relates to HSV. In words: Anti-HSV SAR summary, HSV type not separated. The class given is cell-based, herpes simplex virus. As to conditions: grouped by activity at 50, 5 and 0.5 μM. In a few lines: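 Confluent monolayers were infected with HSV-1 or HSV-2 at MOI 0.1 in the presence of compound at 50 and 5 µM for 1 h at 37 °C. Compound was then re-added in DMEM/2% newborn calf serum for 23 h more. Yield was titred by plaque assay on Vero cells, with DMSO controls. EC50 values came from serial dilutions starting at 50 µM, fitted by non-linear regression.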

Data set [3] in a line: Quantitative Vero cell toxicity (MTT). Type of data set: cell-based. As to conditions: African green monkey, Vero cells. In a few lines: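 Vero cells (1.0×10^4/well) got compounds at 0.78–100 μM in 1% DMSO for 24 h under antiviral-assay conditions. Viability was measured by MTT (0.25 mg/mL, 60 min), solubilized in acidic isopropanol and read at 570 nm. CC50 came from a non-linear curve fit.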

Data set [4] relates to HSV-2. In words: Combination of ACV and compound 118 against HSV-2 in Vero cells (plaque assay, qPCR, Chou-Talalay). The class given is cell-based, herpes simplex virus 2. As to conditions: constant ratios, MOI 0.1, 24 h, FIGS. 8A-8C. The method, then:
After 24 h, the cultures were collected and divided into two aliquots. […] The area below the lines indicates synergism, and the area above indicates antagonism.

Take `Cc1cc(O)c(=O)c(O)cc1C(=O)c1ccc(-c2ccccc2)cc1` [Compound 118]: in the data set with HSV-2 [1] (5 μM, laboratory strain, 24 hr, FIG. 4), the “inhibition of wild-type HSV-2, in words” value is reported as “efficiently inhibited”. For the same compound, the EC50 in the data set with HSV-2 [1] (Human alphaherpesvirus 2, Vero, 24 h, read-out: HSV-2 EC50) stood at 80 nM. Further, the log reduction at 5 µM with HSV-2 [1] (Human alphaherpesvirus 2, Vero, 24 h, read-out: HSV-2 Log suppression 5 μM) came to 3.22. Moreover, the log reduction at 50 µM in the data set with HSV-2 [1] (Human alphaherpesvirus 2, Vero, 24 h, read-out: HSV-2 Log suppression 50 μM) is 5.56. In data set [2], the “inhibition of the TK-mutant strain, in words” value is “efficiently inhibited”. In addition, in the data set with HSV, the “anti-HSV SAR group, in words” value is given as “highly inhibitory at much lower concentrations; also recorded: fully inhibitory at 5 μM”. The same compound returned a CC50 at 24 h in data set [3] above 100000 nM. Besides, the “interaction with ACV on HSV-2 replication and DNA accumulation” value in the data set on HSV-2 [4] is “synergistically inhibit”.
